Patent publication US20110178016A1, “PULSE PARATHYROID HORMONE FOR TREATMENT OF THE HEM[…], STROMAL CELL LOSS, AND VASCULAR INJURY RESULTING FROM ACUTE EXPOSURE TO LETHAL RADIATION” (priority 2008, published 2011)
Entries after “also recorded” stand apart in the source; their conditions may differ.

Key:
[1] = Serum PTH levels for PK analysis in non-irradiated monkeys; format: in vivo, cynomolgus monkeys; settings: non-irradiated monkeys 7801 (100 mcg/kg/d) and 7872 (50 mcg/kg/d), days 1 and 18
Protocol: PTH becomes undetectable by 4-6 hours after dosing, despite extremely high doses of PTH.
Two cynomolgus monkeys (hereafter referred to as CYNOs) were treated with a 21 day course of daily subcutaneous PTH at either 100 mcg/kg (monkey 7801) or 50 mcg/kg (monkey 7872). Hematopoietic outcome measures included:
(c) serum PTH levels; and […]

[2] = clinical studies, cited from earlier work
[3] = Serum PTH levels in mice after final dose (Mesoscale); format: in vivo; settings: 400 mcg/kg PTH, final dose on day 28
Protocol: Bone marrow was analyzed for colony forming units (CFU) (FIGS. 9A and 9B), hematopoietic stem cell content. Serum was analyzed for PTH levels on the final day of the study to determine the duration of detectable PTH in the serum following the final dose.

[4] = tested on: mice exposed to lethal radiation (772 cGy); test: Survival of mice after lethal irradiation (772 cGy) with PTH treatment; format: in vivo, B6 mice; settings: for Thirty day survival: no treatment 50%; for 49 day survival: vehicle 60%
Protocol: In a study of 98 mice exposed to lethal irradiation, half received placebo (saline) and half received daily PTH 80 mcg/kg/day for 28 days. There was a survival advantage in the PTH treated group, 24/49 survived vs placebo, 16/49, (95% CI, 0.7707, 2.462).
80 ug/day PTH therapy followed lethal irradiation (772 cGy) exposure. 49 mice were treated with daily PTH (80 mcg/kg/d sc×28 days) 24 hours following a lethal radiation exposure of 772 cGy and compared to 49 vehicle treated control animals. Outcome measures included platelet counts, survival, and other hematopoietic studies. When censoring for technical deaths, 46 animals were analyzed in the placebo group (daily saline injections) with 47 analyzed from the daily PTH 80 mcg/kg/day treatment. […] Thirty-day survival in the placebo group was 18/46 or 39%. Of the PTH treated animals 26/47 animals survived (55%, p=0.2).
In another set of dose finding experiments, the same radiation exposure was used (772 cGy). Three treatment groups were studied: (1) untreated (no placebo, n=8), (2) treated with 200 mcg/kg PTH daily beginning 24 hours after radiation exposure, n=12, (3) treated with 200 mcg/kg PTH twice daily beginning 24 hours after radiation exposure, n=12.
Comparison was made of animals treated with PTH, 200 ug/day, 200 ug twice daily (BID) vs those receiving no PTH treatment following lethal irradiation (772 cGy).
Three groups of B6 mice underwent irradiation.
Group 1 received no treatment, n=8.
Group 2 received PTH, 200 micrograms/kg/day, n=10, first begun 24 hours following radiation exposure to 772 cGy and continued for 28 days.
Group 3 received the same duration of PTH but instead was treated twice daily, 200 micrograms/kg/day BID for a daily total dose of 400 mcg/kg/day, n=12.
Four cohorts of B6 mice were irradiated to uniform, total body, midline tissue dose at a dose rate of 80+2.5 cGy/min to a dose of 772 cGy.
Group 1 received vehicle control (saline) treatment×28 days, beginning 24 hours after radiation, n=10.
Group 2 received PTH, 400 micrograms/kg/day, n=10, first begun 24 hours following radiation exposure to 772 cGy and continued for 28 days.
Group 3 received PTH, 1000 micrograms/kg/day, n=10, 24 hours following radiation, and then 400 mcg/kg/day for 7 days.
Group 4 received PTH, 400 micrograms/kg/day, n=10, 24 hours following radiation, and continued for 7 days.

## CC[C@H](C)[C@H](NC(=O)[C@H](CCC(=O)O)NC(=O)[C@H](CO)NC(=O)[C@@H](NC(=O)[C@@H](N)CO)C(C)C)C(=O)N[C@@H](CCC(N)=O)C(=O)N[C@@H](CC(C)C)C(=O)N[C@@H](CCSC)C(=O)N[C@@H](Cc1cnc[nH]1)C(=O)N[C@@H](CC(N)=O)C(=O)N[C@@H](CC(C)C)C(=O)NCC(=O)N[C@@H](CCCCN)C(=O)N[C@@H](Cc1cnc[nH]1)C(=O)N[C@@H](CC(C)C)C(=O)N[C@@H](CC(N)=O)C(=O)N[C@@H](CO)C(=O)N[C@@H](CCSC)C(=O)N[C@@H](CCC(=O)O)C(=O)N[C@@H](CCCN=C(N)N)C(=O)N[C@H](C(=O)N[C@@H](CCC(=O)O)C(=O)N[C@@H](Cc1c[nH]c2ccccc12)C(=O)N[C@@H](CC(C)C)C(=O)N[C@@H](CCCN=C(N)N)C(=O)N[C@@H](CCCCN)C(=O)N[C@@H](CCCCN)C(=O)N[C@@H](CC(C)C)C(=O)N[C@@H](CCC(N)=O)C(=O)N[C@@H](CC(=O)O)C(=O)N[C@H](C(=O)N[C@@H](Cc1cnc[nH]1)C(=O)N[C@@H](CC(N)=O)C(=O)N[C@@H](Cc1ccccc1)C(=O)O)C(C)C)C(C)C [PTH, Teriparatide]
[1]
  time after dosing by which PTH becomes undetectable in serum: 4 to 6 h
[2]; even with chronic treatment
  toxic effect: no toxic effect
[2]
  biological potency vs full-length PTH protein: comparable biological potency
[3]
  PTH in sera after final PTH dose: some persistence of PTH at 24 hours
  time of return of serum PTH to baseline after final dose: 48 h
[4]; 98 mice, lethal irradiation, PTH 80 mcg/kg/day for 28 days, placebo 16/49
  survival (survived/total): 24/49
[4]; 772 cGy, 200 mcg/kg experiments, LD50/30 changed to LD25/30
  reduction in mortality: 25%
[4]; 772 cGy, PTH 80 mcg/kg/day vs placebo
  thrombocytopenia duration or nadir: no significant difference
[4]; 772 cGy, PTH 200 mcg/kg daily for 28 days (8/12)
  Thirty day survival: 67%
[4]; 772 cGy, PTH 200 mcg/kg twice daily for 28 days (9/12)
  Thirty day survival: 75%
[4]; 772 cGy, PTH 400 mcg/kg/day x 7 days (Group 4), p=0.02
  49 day survival: 100%
[4]; 772 cGy, PTH 400 micrograms/kg/day x 28 days (Group 2, 9/10), p=0.05
  49 day survival: 90%
[4]; 772 cGy, PTH 1000 micrograms/kg/day then 400 mcg/kg/day for 7 days (Group 3, 9/10), p=0.05
  49 day survival: 90%
[4]; 1000 mcg/kg dose group, control survivors 3/6
  preputial inflammation and abscess among survivors: ⅙
[4]; 7 day course of PTH 400 mcg/kg/day following an LD50/30 radiation exposure
  30-day survival: 100%
[4]; daily or twice doses of PTH, lethal irradiation dose expected to result in 50% death of mice (summary)
  survival: 100%
[4]; other PTH groups (400 mcg/kg/day x 28 days or x 7 days), control survivors 3/6
  preputial inflammation and abscess / infection among survivors: None were observed; also recorded: prevents infection
